We go through ten compounds from patent US11771738B2 (Zoetis Services LLC, priority 2018, dated 2023).

What all share (type): cell-based
In experiment [1] the test system is microfilariae of Dirofilaria immitis. Nature of the experiment: Dirofilaria immitis, Microfilaria (DiMf) In Vitro Assay. The following applies: Dirofilaria immitis, 72 h, read-out: DiMf MED, Minimum Effective Dose, D. immitis microfilariae motility, in vitro.
For a further experiment, the system named is D. immitis L4 larvae. As to the kind of experiment: Dirofilaria immitis, L4 Stage (DiL4) In Vitro Assay. The following applies: for minimal effective concentration: Dirofilaria immitis, 72 h, read-out: DiL4 MED, Minimum Effective Dose, D. immitis L4 larvae motility, in vitro; for DiMf/DiL4: larval stage selectivity, ratio of DiMf MED to DiL4 MED.
Experiment [2] concerns third stage larvae of Haemonchus contortus. As to the kind of experiment: Haemonchus contortus, Larvae Stage 3 (HcL3) In Vitro Assay. The following applies: Haemonchus contortus, 96 h.
[3] abbreviates: read-out: HcL3 MED, Haemonchus contortus third stage larvae in vitro, class mark appended to the Ex # in Table 3.
[4] abbreviates: read-out: HcL3 MED, Minimum Effective Dose, H. contortus third stage larvae, approximately 96 hours.
[5] abbreviates: read-out: HcL3 MED, approximately 96 hours incubation, multiple-resistant field isolate.

Each structure is given as a SMILES string. Where two headings read alike, the source gives them in different places. Bounds are passed on as bounds.

As for `Cc1cc(Cc2ccc(C[C@H]3OC(=O)[C@H](CC(C)C)N(C)C(=O)[C@@H](C)OC(=O)[C@H](CC(C)C)N(C)C(=O)[C@@H](Cc4ccc(Cc5cc(C)nn5C)cc4)OC(=O)[C@H](CC(C)C)N(C)C(=O)[C@@H](C)OC(=O)[C@H](CC(C)C)N(C)C3=O)cc2)n(C)n1` [Example 3-49, (3S,6R,9S,12R,15S,18R,21S,24R)-6,18-bis(4-((1,3-dimethyl-1H-pyrazol-5-yl)methyl)benzyl)-3,9,15,21-tetraisobutyl-4,10,12,16,22,24-hexamethyl-1,7,13,19-tetraoxa-4,10,16,22-tetraazacyclotetracosan-2,5,8,11,14,17,20,23-octaone], the minimal effective concentration is 0.005 µM in experiment [1], 0.001 µM with D. immitis L4 larvae, 1 to 3.3 µM in experiment [2] (setting [3]) and 3.3 µM in experiment [2] (setting [4]). For the same compound, the DiMf/DiL4 with D. immitis L4 larvae is reported as 5.
With `CC(C)C[C@H]1C(=O)O[C@H](Cc2ccc(Cc3occc3C#N)cc2)C(=O)N(C)[C@@H](CC(C)C)C(=O)O[C@H](C)C(=O)N(C)[C@@H](CC(C)C)C(=O)O[C@H](Cc2ccc(Cc3occc3C#N)cc2)C(=O)N(C)[C@@H](CC(C)C)C(=O)O[C@H](C)C(=O)N1C` [Example 3-50, 2,2′-(((((2R,5S,8R,11 S,14R,17S,20R,23S)-5,11,17,23-tetraisobutyl-4,8,10,16,20,22-hexamethyl-3,6,9,12,15,18,21,24-octaoxo-1,7,13,19-tetraoxa-4,10,16,22-tetraazacyclotetracosane-2,14-diyl)bis(methylene))bis(4,1-phenylene))bis(methylene))bis(furan-3-carbonitrile)], the minimal effective concentration in experiment [1] was 0.001 µM; with D. immitis L4 larvae, 0.0001 µM; in experiment [2] (setting [3]), less than 1 µM; in experiment [2] (setting [4]), 0.3 µM; in experiment [2] (setting [5]), not above 1 µM. Also, the DiMf/DiL4 with D. immitis L4 larvae is 10.
For `CC(C)C[C@H]1C(=O)O[C@H](Cc2ccc(Cc3ccsc3)cc2)C(=O)N(C)[C@@H](CC(C)C)C(=O)O[C@H](C)C(=O)N(C)[C@@H](CC(C)C)C(=O)O[C@H](Cc2ccc(Cc3ccsc3)cc2)C(=O)N(C)[C@@H](CC(C)C)C(=O)O[C@H](C)C(=O)N1C` [Example 3-56, (3S,6R,9S,12R,15S,18R,21S,24R)-3,9,15,21-tetraisobutyl-4,6,10,16,18,22-hexamethyl-12,24-bis(4-(thiophen-3-ylmethyl)benzyl)-1,7,13,19-tetraoxa-4,10,16,22-tetraazacyclotetracosan-2,5,8,11,14,17,20,23-octaone], the minimal effective concentration in experiment [1] is 0.1 µM; with D. immitis L4 larvae, 0.0005 µM; in experiment [2] (setting [3]), less than 1 µM; in experiment [2] (setting [4]) it was 0.5 µM; in experiment [2] (setting [5]), not above 1 µM. Besides, the DiMf/DiL4 in the experiment with D. immitis L4 larvae is 200.
Take `CC(C)C[C@H]1C(=O)O[C@H](Cc2ccc(Cc3cocn3)cc2)C(=O)N(C)[C@@H](CC(C)C)C(=O)O[C@H](C)C(=O)N(C)[C@@H](CC(C)C)C(=O)O[C@H](Cc2ccc(Cc3cocn3)cc2)C(=O)N(C)[C@@H](CC(C)C)C(=O)O[C@H](C)C(=O)N1C` [Example 3-57, (3S,6R,9S,12R,15S,18R,21S,24R)-3,9,15,21-tetraisobutyl-4,6,10,16,18,22-hexamethyl-12,24-bis(4-(oxazol-4-ylmethyl)benzyl)-1,7,13,19-tetraoxa-4,10,16,22-tetraazacyclotetracosan-2,5,8,11,14,17,20,23-octaone]: the minimal effective concentration in experiment [1] was 0.0003 µM; in the experiment on D. immitis L4 larvae, 0.0003 µM; in experiment [2] (setting [3]), less than 1 µM; in experiment [2] (setting [4]), 1 µM; in experiment [2] (setting [5]), not above 1 µM. Also, the DiMf/DiL4 in the experiment with D. immitis L4 larvae came out at 1.
As to `CC(C)C[C@H]1C(=O)O[C@H](Cc2ccc(Cc3coc(C#N)c3)cc2)C(=O)N(C)[C@@H](CC(C)C)C(=O)O[C@H](C)C(=O)N(C)[C@@H](CC(C)C)C(=O)O[C@H](Cc2ccc(Cc3coc(C#N)c3)cc2)C(=O)N(C)[C@@H](CC(C)C)C(=O)O[C@H](C)C(=O)N1C` [Example 3-60, 4,4′-(((((2R,5S,8R,11 S,14R,17S,20R,23S)-5,11,17,23-tetraisobutyl-4,8,10,16,20,22-hexamethyl-3,6,9,12,15,18,21,24-octaoxo-1,7,13,19-tetraoxa-4,10,16,22-tetraazacyclotetracosane-2,14-diyl)bis(methylene))bis(4,1-phenylene))bis(methylene))bis(furan-2-carbonitrile)], the minimal effective concentration is 0.05 µM in experiment [1], 0.001 µM in the experiment with D. immitis L4 larvae and more than 10 µM in experiment [2] (setting [4]). Besides, the DiMf/DiL4 with D. immitis L4 larvae came to 50.
For `COc1cccc(Cc2ccc(C[C@H]3OC(=O)[C@H](CC(C)C)N(C)C(=O)[C@@H](C)OC(=O)[C@H](CC(C)C)N(C)C(=O)[C@@H](Cc4ccc(Cc5cccc(OC)n5)cc4)OC(=O)[C@H](CC(C)C)N(C)C(=O)[C@@H](C)OC(=O)[C@H](CC(C)C)N(C)C3=O)cc2)n1` [Example 3-69, (3S,6R,9S,12R,15S,18R,21S,24R)-3,9,15,21-tetraisobutyl-6,18-bis(4-((6-methoxypyridin-2-yl)methyl)benzyl)-4,10,12,16,22,24-hexamethyl-1,7,13,19-tetraoxa-4,10,16,22-tetraazacyclotetracosan-2,5,8,11,14,17,20,23-octaone], the minimal effective concentration is 0.03 µM in experiment [1]; 0.0007 µM with D. immitis L4 larvae; less than 1 µM in experiment [2] (setting [3]); 0.5 µM in experiment [2] (setting [4]); not above 1 µM in experiment [2] (setting [5]). Moreover, the DiMf/DiL4 with D. immitis L4 larvae turned out to be 42.9.
As to `CC(C)C[C@H]1C(=O)O[C@H](Cc2ccc(Cc3sccc3Cl)cc2)C(=O)N(C)[C@@H](CC(C)C)C(=O)O[C@H](C)C(=O)N(C)[C@@H](CC(C)C)C(=O)O[C@H](Cc2ccc(Cc3sccc3Cl)cc2)C(=O)N(C)[C@@H](CC(C)C)C(=O)O[C@H](C)C(=O)N1C` [Example 3-87, (3S,6R,9S,12R,15S,18R,21S,24R)-6,18-bis(4-((3-chlorothiophen-2-yl)methyl)benzyl)-3,9,15,21-tetraisobutyl-4,10,12,16,22,24-hexamethyl-1,7,13,19-tetraoxa-4,10,16,22-tetraazacyclotetracosan-2,5,8,11,14,17,20,23-octaone], the minimal effective concentration in experiment [1] is 0.1 µM; with D. immitis L4 larvae it was 0.0003 µM; in experiment [2] (setting [3]), less than 1 µM; in experiment [2] (setting [4]) it was 0.3 µM; in experiment [2] (setting [5]), not above 1 µM. For the same compound, the DiMf/DiL4 with D. immitis L4 larvae amounted to 333.
In the case of `COc1ccsc1Cc1ccc(C[C@H]2OC(=O)[C@H](CC(C)C)N(C)C(=O)[C@@H](C)OC(=O)[C@H](CC(C)C)N(C)C(=O)[C@@H](Cc3ccc(Cc4sccc4OC)cc3)OC(=O)[C@H](CC(C)C)N(C)C(=O)[C@@H](C)OC(=O)[C@H](CC(C)C)N(C)C2=O)cc1` [Example 3-110, (3S,6R,9S,12R,15S,18R,21S,24R)-3,9,15,21-tetraisobutyl-6,18-bis(4-((3-methoxythiophen-2-yl)methyl)benzyl)-4,10,12,16,22,24-hexamethyl-1,7,13,19-tetraoxa-4,10,16,22-tetraazacyclotetracosan-2,5,8,11,14,17,20,23-octaone], the minimal effective concentration in experiment [1] was 0.03 µM; with D. immitis L4 larvae it was 0.0001 µM; in experiment [2] (setting [4]) it was more than 100 µM. In addition, the DiMf/DiL4 with D. immitis L4 larvae is reported as 300.
For the compound `CC(C)C[C@H]1C(=O)O[C@H](Cc2ccc(Cc3scnc3Cl)cc2)C(=O)N(C)[C@@H](CC(C)C)C(=O)O[C@H](C)C(=O)N(C)[C@@H](CC(C)C)C(=O)O[C@H](Cc2ccc(Cc3scnc3Cl)cc2)C(=O)N(C)[C@@H](CC(C)C)C(=O)O[C@H](C)C(=O)N1C` [Example 3-112, (3S,6R,9S,12R,15S,18R,21S,24R)-6,18-bis(4-((4-chlorothiazol-5-yl)methyl)benzyl)-3,9,15,21-tetraisobutyl-4,10,12,16,22,24-hexamethyl-1,7,13,19-tetraoxa-4,10,16,22-tetraazacyclotetracosan-2,5,8,11,14,17,20,23-octaone], the minimal effective concentration in experiment [1] was 0.001 µM; in the experiment with D. immitis L4 larvae it was 3e-05 µM; in experiment [2] (setting [3]), less than 1 µM; in experiment [2] (setting [4]), 1 µM; in experiment [2] (setting [5]) it was not above 1 µM. Further, the DiMf/DiL4 with D. immitis L4 larvae worked out at 33.3.
With `COc1ncc(Cc2ccc(C[C@H]3OC(=O)[C@H](CC(C)C)N(C)C(=O)[C@@H](C)OC(=O)[C@H](CC(C)C)N(C)C(=O)[C@@H](Cc4ccc(Cc5cnc(OC)c(F)c5)cc4)OC(=O)[C@H](CC(C)C)N(C)C(=O)[C@@H](C)OC(=O)[C@H](CC(C)C)N(C)C3=O)cc2)cc1F` [Example 3-118, (3S,6R,9S,12R,15S,18R,21S,24R)-6,18-bis(4-((5-fluoro-6-methoxypyridin-3-yl)methyl)benzyl)-3,9,15,21-tetraisobutyl-4,10,12,16,22,24-hexamethyl-1,7,13,19-tetraoxa-4,10,16,22-tetraazacyclotetracosan-2,5,8,11,14,17,20,23-octaone], the minimal effective concentration in experiment [1] is 0.1 µM; with D. immitis L4 larvae, 0.001 µM; in experiment [2] (setting [4]), more than 100 µM. Moreover, in the experiment with D. immitis L4 larvae, the DiMf/DiL4 is given as 100.
